Assay results reported in DBAASP.
Values after ≈ are worked out from the molar mass of the structure shown.

How the values were obtained:
Test in all cases: ≥ marks a high value that may be exact or a test limit, other limits are often not marked, values filed in µg/mL are converted to µM
[1] = system: Streptococcus pyogenes M1T1 5448
[2] = system: Pseudomonas aeruginosa PAO1
[3] = system: Escherichia coli BL21
[4] = system: Salmonella enterica subsp. enterica serovar Pullorum C79-13
[5] = system: Escherichia coli UB1005
[6] = system: Lacticaseibacillus rhamnosus 1.0385
[7] = system: Lacticaseibacillus rhamnosus 7469
[8] = system: Pseudomonas aeruginosa ATCC 27853
[9] = system: Salmonella enterica subsp. enterica serovar Typhimurium ATCC 14028
[10] = system: Staphylococcus aureus ATCC 25923
[11] = system: Lacticaseibacillus rhamnosus 1.0936
[12] = system: Lactiplantibacillus plantarum 8014
[13] = system: Lacticaseibacillus rhamnosus 1.0911
[14] = system: Escherichia coli ATCC 25922
[15] = system: Staphylococcus aureus ATCC 43300
[16] = system: Salmonella enterica subsp. enterica serovar Typhimurium C77-31
[17] = system: Escherichia coli K88
[18] = system: Staphylococcus aureus ATCC 29213
[19] = system: Escherichia coli K99
[20] = system: Bacillus subtilis CMCC 63501
[21] = system: Aeromonas hydrophila
[22] = system: Vibrio parahaemolyticus
[23] = system: Aeromonas sobria
[24] = system: Candida albicans CMCC 98001
[25] = system: Bacillus cereus CMCC 63301
[26] = system: Staphylococcus epidermidis
[27] = system: Clostridium perfringens ATCC 13124
[28] = system: Vibrio harveyi
[29] = system: Vibrio splendidus
[30] = system: Shigella flexneri ATCC 12022
[31] = system: Vibrio alginolyticus
[32] = system: Enterococcus faecium
[33] = system: Staphylococcus aureus CMCC 26003
[34] = system: Candida albicans 1
[35] = system: Klebsiella pneumoniae
[36] = system: Candida glabrata
[37] = system: Pseudomonas aeruginosa CMCC 10104
[38] = system: Acinetobacter baumannii
[39] = system: Enterococcus faecalis ATCC 29212
[40] = system: Escherichia coli CMCC 44102
[41] = system: Vibrio vulnificus
[42] = system: Candida albicans FRR 5580
[43] = system: Pseudomonas aeruginosa ATCC 9027
[44] = system: Escherichia coli
[45] = system: Staphylococcus aureus ATCC BAA-1683

CC[C@H](C)[C@H](NC(=O)[C@H](CCCN=C(N)N)NC(=O)[C@H](CC(N)=O)NC(=O)[C@@H](NC(=O)CNC(=O)[C@H](C)N)[C@@H](C)O)C(=O)N[C@@H](C)C(=O)N[C@@H](CCCCN)C(=O)N[C@@H](CCC(=O)O)C(=O)N[C@@H](CC(C)C)C(=O)N[C@@H](CCCN=C(N)N)C(=O)N[C@@H](CCCN=C(N)N)C(=O)N[C@@H](Cc1ccc(O)cc1)C(=O)N[C@H](C(=O)N[C@@H](CCCN=C(N)N)C(=O)N[C@@H](CCCCN)C(=O)N[C@H](C(=O)NCC(=O)N[C@@H](CCCN=C(N)N)C(=O)N[C@H](C(=O)N[C@@H](CCCCN)C(=O)N[C@@H](CCCN=C(N)N)C(=O)N[C@@H](CCCCN)C(=O)N[C@@H](C)C(=O)N[C@@H](Cc1c[nH]c2ccccc12)C(=O)O)[C@@H](C)CC)C(C)C)[C@@H](C)CC [AGTNRIAKELRRYIRKVGRIKRKAW]
MIC [1]: 2 µM (≈ 6.08 µg/mL)
MIC [2]: 16 µM (≈ 48.7 µg/mL)
MIC [3]: 0.25 µM (≈ 0.76 µg/mL)

C[C@H](NC(=O)[C@H](C)NC(=O)[C@H](Cc1c[nH]c2ccccc12)NC(=O)[C@H](Cc1c[nH]c2ccccc12)NC(=O)[C@H](Cc1c[nH]c2ccccc12)NC(=O)[C@H](CCCN=C(N)N)NC(=O)[C@@H]1CSSC[C@H](N)C(=O)N[C@@H](C)C(=O)N[C@@H](CO)C(=O)N[C@@H](Cc2ccc(O)cc2)C(=O)N[C@@H](Cc2ccccc2)C(=O)N1)C(N)=O [CASYFCRWWWAA]
MIC [4]: ≥ 64 µM
MIC [5]: ≥ 64 µM
MIC [6]: ≥ 64 µM
MIC [7]: ≥ 64 µM
MIC [8]: > 64 µM
MIC [9]: > 64 µM
MIC [10]: > 64 µM
MIC [11]: ≥ 64 µM
MIC [12]: ≥ 64 µM
MIC [13]: ≥ 64 µM
MIC [14]: > 64 µM
MIC [15]: > 64 µM
MIC [16]: ≥ 64 µM
MIC [17]: ≥ 64 µM
MIC [18]: > 64 µM
MIC [19]: ≥ 64 µM

CC[C@H](C)[C@H](NC(=O)[C@H](CC(N)=O)NC(=O)[C@H](CS)NC(=O)CNC(=O)[C@@H](N)CCC(=O)O)C(=O)N[C@@H](CC(C)C)C(=O)N[C@@H](CS)C(=O)N[C@@H](CC(C)C)C(=O)N[C@@H](CC(C)C)C(=O)N[C@@H](CCCCN)C(=O)N[C@@H](CCCN=C(N)N)C(=O)N[C@@H](CCCCN)C(=O)N[C@H](C(=O)N[C@@H](CCCCN)C(=O)N[C@@H](C)C(=O)N[C@H](C(=O)N[C@@H](CCCCN)C(=O)N[C@@H](CC(N)=O)C(=O)N[C@H](C(=O)N[C@H](C(=O)N[C@@H](CCCCN)C(=O)N[C@@H](CC(N)=O)C(=O)N[C@H](C(=O)N[C@H](C(=O)N[C@@H](CCCCN)C(=O)N[C@@H](CO)C(=O)N[C@H](C(=O)N[C@H](C(=O)NCC(=O)O)C(C)C)C(C)C)C(C)C)C(C)C)C(C)C)C(C)C)C(C)C)C(C)C [EGCNILCLLKRKVKAVKNVVKNVVKSVVG]
MIC [20]: 11.9 µM (≈ 37.5 µg/mL)
MIC [21]: 11.9 µM (≈ 37.5 µg/mL)
MIC [22]: 2.99 µM (≈ 9.38 µg/mL)
MIC [23]: 31.9 µM (≈ 100 µg/mL)
MIC [24]: 31.9 µM (≈ 100 µg/mL)
MIC [25]: 31.9 µM (≈ 100 µg/mL)
MIC [26]: 31.9 µM (≈ 100 µg/mL)
MIC [27]: 11.9 µM (≈ 37.5 µg/mL)
MIC [28]: 23.9 µM (≈ 75 µg/mL)
MIC [29]: 23.9 µM (≈ 75 µg/mL)
MIC [30]: 5.97 µM (≈ 18.8 µg/mL)
MIC [31]: 31.9 µM (≈ 100 µg/mL)
MIC [32]: 31.9 µM (≈ 100 µg/mL)
MIC [14]: 2.99 µM (≈ 9.38 µg/mL)
MIC [33]: 2.99 µM (≈ 9.38 µg/mL)
MIC [34]: 31.9 µM (≈ 100 µg/mL)
MIC [35]: > 31.9 µM
MIC [36]: 31.9 µM (≈ 100 µg/mL)
MIC [37]: 31.9 µM (≈ 100 µg/mL)
MIC [38]: 31.9 µM (≈ 100 µg/mL)
MIC [39]: > 31.9 µM
MIC [40]: 5.97 µM (≈ 18.8 µg/mL)
MIC [41]: 31.9 µM (≈ 100 µg/mL)

CC(C)[C@H](NC(=O)[C@@H]1CCCN1C(=O)[C@H](Cc1ccccc1)NC(=O)[C@H](CCCCN)NC(=O)CNC(=O)[C@H](CCCCN)NC(=O)[C@H](Cc1c[nH]c2ccccc12)NC(=O)[C@H](Cc1c[nH]c2ccccc12)NC(=O)[C@H](CCCCN)NC(=O)[C@H](Cc1c[nH]c2ccccc12)NC(=O)[C@H](Cc1c[nH]c2ccccc12)NC(=O)[C@H](CCCN=C(N)N)NC(=O)[C@H](Cc1c[nH]c2ccccc12)NC(=O)[C@@H](NC(=O)[C@@H](NC(=O)[C@@H]1CCCN1C(=O)[C@@H](N)Cc1ccccc1)C(C)C)[C@@H](C)O)C(=O)N[C@H](C(=O)N[C@@H](Cc1c[nH]c2ccccc12)C(=O)N[C@@H](CCCN=C(N)N)C(=O)N[C@@H](Cc1c[nH]c2ccccc12)C(=O)N[C@@H](Cc1c[nH]c2ccccc12)C(=O)N[C@@H](CCCCN)C(=O)N[C@@H](Cc1c[nH]c2ccccc12)C(=O)N[C@@H](Cc1c[nH]c2ccccc12)C(=O)N[C@@H](CCCCN)C(=O)NCC(=O)O)[C@@H](C)O [FPVTWRWWKWWKGKFPVTWRWWKWWKG]
MIC [42]: ≥ 32.6 µM
MIC [10]: 65.2 µM (≈ 250 µg/mL)
MIC [43]: > 65.2 µM
MIC [14]: 65.2 µM (≈ 250 µg/mL)

CC(C)C[C@H](NC(=O)[C@H](CC(C)C)NC(=O)[C@H](CCCCN)NC(=O)[C@H](Cc1c[nH]c2ccccc12)NC(=O)[C@H](Cc1c[nH]c2ccccc12)NC(=O)[C@@H](N)CCCCN)C(=O)N[C@@H](CCCN=C(N)N)C(=O)N[C@@H](CCCCN)C(=O)N[C@@H](CCCCN)C(=O)N[C@@H](CCCN=C(N)N)C(N)=O [KWWKLLRKKR]
MIC [10]: 21.7 µM (≈ 31.2 µg/mL)
MIC [44]: 173 µM (≈ 250 µg/mL)
MIC [45]: ≥ 43.3 µM
